target: T1, human DAT (Homo sapiens, UniProt Q01959); assay: DAT uptake SPA in hDAT-CHO cells; format: cell-based; settings: not given
T1 construct: expressed in transfected cells; host or cells: CHO (hDAT-CHO)
T1 sequence (Q01959 whole entry): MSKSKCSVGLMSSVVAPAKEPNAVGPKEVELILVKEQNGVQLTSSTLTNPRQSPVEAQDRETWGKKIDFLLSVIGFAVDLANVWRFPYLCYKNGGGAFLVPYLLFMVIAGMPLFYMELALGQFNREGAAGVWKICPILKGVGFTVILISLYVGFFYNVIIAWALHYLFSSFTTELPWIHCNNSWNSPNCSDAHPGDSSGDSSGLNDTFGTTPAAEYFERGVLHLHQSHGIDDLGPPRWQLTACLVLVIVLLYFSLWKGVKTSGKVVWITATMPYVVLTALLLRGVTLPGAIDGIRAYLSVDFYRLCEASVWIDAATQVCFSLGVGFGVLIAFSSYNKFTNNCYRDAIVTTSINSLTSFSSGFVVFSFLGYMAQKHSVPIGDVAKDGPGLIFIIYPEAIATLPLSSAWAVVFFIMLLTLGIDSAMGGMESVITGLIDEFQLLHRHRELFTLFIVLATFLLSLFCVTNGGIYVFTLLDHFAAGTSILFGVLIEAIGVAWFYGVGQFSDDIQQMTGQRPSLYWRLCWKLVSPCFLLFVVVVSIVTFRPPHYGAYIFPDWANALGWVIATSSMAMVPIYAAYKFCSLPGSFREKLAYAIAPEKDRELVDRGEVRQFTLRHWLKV

Structure (SMILES)	IC50
COc1ccc2c(c1)CC(N)C2 (stereo not drawn) [MEAI, 5-methoxy-2-aminoindane]	50.1 µM
COc1cc2c(cc1C)CC(N)C2 (stereo not drawn) [MMAI, 5-methoxy-6-methyl-2-aminoindane]	50.1 µM

same assay, conditions: [3H]-dopamine uptake, hDAT-CHO cells

Structure (SMILES)	DAT Uptake SPA (pIC50)
CNC(C)Cc1ccc2c(c1)OCO2 (stereo not drawn) [MDMA]	5.7

same assay, conditions: [3H]-dopamine uptake, hDAT-CHO cells; read-out: DAT Uptake SPA (pIC50) (converted)

Structure (SMILES)	IC50
COC(=O)c1ccc2c(c1)CC(N)C2 (stereo not drawn) [CMP-405, 2-aminoindane-5-methylcarboxylate]	20 µM
COC(=O)c1cc2c(cc1OC)CC(N)C2 (stereo not drawn) [CMP-401]	100 µM
COC(=O)COc1ccc2c(c1)CC(N)C2 (stereo not drawn) [CMP-402]	100 µM

tested on: DA release in rat synaptosomes; assay: Dopamine release assay in rat striatal synaptosomes; format: biochemical; settings: % of maximal release with 50 μM MDMA, n=2
Description: Methods-Evaluation of Monoamine Release: The potency of therapeutic compounds for stimulating DA release was measured by an endpoint release filtration assay in a 96-well format using rat synaptosomes, essentially as described by Sandtner et al. (Mol Pharmacol., 2016; 89(1):165-75.) and Baumann et al. (Neuropsychopharmacol, 2013; 38:552-562.) with some variations. One male rat was euthanized, and striatum/cortex regions were dissected over ice. The striatum portions were weighed and put in a glass tube containing ice-cold 0.32 M sucrose (dilution 1:24 w/v) for homogenization, while the frontal cortex tissue was diluted in ice-cold 0.32 M sucrose, 1:20 w/v. Tissues were homogenized and centrifuged for 10 mins at 1000×g. The two supernatants from striatum and cortex (crude synaptosomes) were retained on ice until use.
Test compounds were then serially diluted 1:4 in neat DMSO as concentration-response curves (CRC) of 11 points. To each well of a 2-mL 96 deep-well plate (Whatman UNIPLATE 96 well) were added: 2 μL of a concentration-response curve (CRC) of test compounds or 2 μL of DMSO (no-release condition) or 2 μL of MDMA 10 mM solution (final 50 μM, for maximal release), followed by 200 μL/well of complete Krebs-phosphate buffer (126 mM NaCl, 2.4 mM KCl, 0.83 mM CaCl2), 0.8 mM MgCl2, 0.5 mM KH2PO4, 0.5 mM Na2SO4, 11.1 mM glucose, 0.05 mM pargyline, 1 mg/mL ascorbic acid, freshly added, pH 7.4), containing 1 μM reserpine to block vesicular uptake of substrate. Desipramine (100 nM) and citalopram (100 nM) were also added to the release assay buffer in order to inhibit NET and SERT uptake, respectively. The final compound dilution, then, was 1:200 in 0.5% DMSO.
3H-Dopamine was added to the tube containing the crude striatal synaptosomes preparation, diluted 1:20 (v/v) in complete Krebs-phosphate buffer, and was incubated at RT and gently mixed for 60 minutes. Then, 200 μL/well of 3H-DA loaded synaptosomes were dispensed to the compound plate (final 400 μL/well), and the release reaction proceeded for an additional 15 minutes at RT. The release was terminated by vacuum filtration and washing three times with 1 mL of saline solution (NaCl 0.9%) at RT. The retained radioactivity was counted in a scintillation counter after the addition of 50 μL/well Microscint-20.
The raw data (cpm) from residual radioactivity onto the filter were elaborated for the determination of pEC50/EC50 values. Specifically, the compound effect was expressed as the percent of maximal release obtained with 50 μM MDMA (100% release) in comparison to vehicle (0.5% DMSO, 0% release). Both MDMA and D-amphetamine in CRC were used as internal controls in each release experiment. In each plate, for both 0% and 100% of release, the signal window was monitored and Z′ calculations were determined using the raw data of four replicates. 5-HT release was calculated in an identical fashion, except that 5 nM 3H-serotonin was added to crude cortex synaptosomes preparation diluted 1:13 (v/v) in complete Krebs-phosphate buffer containing 1 μM Reserpine, 100 nM GBR12909 and 100 nM nomifensine to block vesicular, DAT, and NET uptake, respectively. Synaptosomes were then loaded with 3H-5HT for 60 minutes at RT. After dispensing loaded synaptosomes onto a compound plate (200 μL/well), the release reaction proceeded for an additional 15 minutes. Stop by filtration, counting, and data elaboration were performed as described for DA release. Compounds were tested in duplicate (n=2).

Structure (SMILES)	DA Release (pEC50)
CNC(C)Cc1ccc2c(c1)OCO2 (stereo not drawn) [MDMA]	6.6
COC(=O)c1ccc2c(c1)CC(N)C2 (stereo not drawn) [CMP-405, 2-aminoindane-5-methylcarboxylate]	5.6
COc1ccc2c(c1)CC(N)C2 (stereo not drawn) [MEAI, 5-methoxy-2-aminoindane]	5.4
COc1cc2c(cc1C)CC(N)C2 (stereo not drawn) [MMAI, 5-methoxy-6-methyl-2-aminoindane]	4.6
COC(=O)c1cc2c(cc1OC)CC(N)C2 (stereo not drawn) [CMP-401]	<4.0
COC(=O)COc1ccc2c(c1)CC(N)C2 (stereo not drawn) [CMP-402]	<4.0

From US20260159474A1, “Aminoindane Compounds and Compositions and Methods of Their Therapeutic Use” (Solvonis Therapeutics Ireland Holdings Limited, priority 2021, published 2026)
